Assay results from patent US12187709B2 (Genentech, Inc., priority 2021, dated 2025).

Tests used:
c-Cbl (residues 47-435) = c-Cbl (residues 47-435) (Homo sapiens (Human), UniProt P22681); assay: c-Cbl SPR assay; type: binding; settings: 20° C.
How it was run: (§1)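 Binding is measured by surface plasmon resonance against both isoforms, with double referencing and 1:1 kinetic fitting. Dissociation time is tuned to 4-5 half-lives.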

c-Cbl = c-Cbl (Homo sapiens (Human), UniProt P22681); assay: C-Cbl LCK Ub TR-FRET assay (C-cbl Lck HTRF); type: biochemical
c-Cbl, sequence (P22681 47-435): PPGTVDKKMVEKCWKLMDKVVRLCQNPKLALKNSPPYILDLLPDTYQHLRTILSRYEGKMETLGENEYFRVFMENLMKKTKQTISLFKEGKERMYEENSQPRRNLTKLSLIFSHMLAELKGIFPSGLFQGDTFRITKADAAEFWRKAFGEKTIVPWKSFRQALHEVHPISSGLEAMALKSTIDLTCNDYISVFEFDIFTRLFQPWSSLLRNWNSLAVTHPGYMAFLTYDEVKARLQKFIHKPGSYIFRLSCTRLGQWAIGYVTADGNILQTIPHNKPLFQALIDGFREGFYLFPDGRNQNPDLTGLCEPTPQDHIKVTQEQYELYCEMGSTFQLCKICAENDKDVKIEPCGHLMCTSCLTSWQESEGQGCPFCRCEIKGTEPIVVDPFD
How it was run: (§2)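 Signal is read once the detection mix has stood 20 min at ambient temperature. Curves are anchored by DMSO as maximum and by omission of LCK as minimum.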

Cbl-b = Cbl-b (Homo sapiens (Human), UniProt Q13191); assay: Cbl-b LCK Ub TR-FRET assay (Cbl-b Lck HTRF); type: biochemical; settings: for IC50: Cbl-b LCK Ub TR-FRET; for fold-selectivity (Cbl-b over C-cbl) / (fold-selectivity) Cbl-b and C-Cbl Selectivity: ratio C-cbl Lck HTRF IC50 / Cbl-b Lck HTRF IC50
Cbl-b, sequence (Q13191 40-426): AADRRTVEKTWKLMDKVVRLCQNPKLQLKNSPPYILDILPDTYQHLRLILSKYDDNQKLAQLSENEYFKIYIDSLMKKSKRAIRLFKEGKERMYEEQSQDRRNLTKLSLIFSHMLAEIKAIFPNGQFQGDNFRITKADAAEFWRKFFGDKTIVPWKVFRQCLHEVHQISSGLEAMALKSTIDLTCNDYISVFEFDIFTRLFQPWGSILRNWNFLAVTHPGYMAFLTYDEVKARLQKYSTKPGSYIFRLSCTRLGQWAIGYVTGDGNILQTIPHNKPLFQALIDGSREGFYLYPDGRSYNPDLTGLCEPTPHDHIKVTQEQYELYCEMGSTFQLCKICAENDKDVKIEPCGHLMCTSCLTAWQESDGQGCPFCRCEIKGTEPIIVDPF
How it was run: as §2

[1] = molecular target: Human Cbl-b (residues 40-426) (Homo sapiens (Human), UniProt Q13191); assay: Cbl-b SPR assay; type: binding; settings: for Fold of selectivity: C-cbl SPR Kd vs Cbl-b SPR Kd; for Kd: SPR, 20° C.
Human Cbl-b (residues 40-426), sequence (Q13191 40-426): as above
How it was run: as §1

c-Cbl (residues 47-435), sequence (P22681 47-435): as the sequence (P22681 47-435) above

| SMILES | Kd (c-Cbl (residues 47-435)) | IC50 (c-Cbl) | IC50 (Cbl-b) | fold-selectivity (Cbl-b over C-cbl) (Cbl-b) | Fold of selectivity [1] | Kd [1] | IC50 (Cbl-b; Example 121) | (fold-selectivity) Cbl-b and C-Cbl Selectivity (Cbl-b) |
| --- | --- | --- | --- | --- | --- | --- | --- | --- |
| Cn1cnnc1[C@H](c1cccc(N2Cc3c(cc(CNC4(C)CCC4)cc3C(F)(F)F)C2=O)c1)C1CCCC1 [Compound 257, (S)-2-(3-(cyclopentyl(4-methyl-4H-1,2,4-triazol-3-yl)methyl)phenyl)-6-(((1-methylcyclobutyl)amino)methyl)-4-(trifluoromethyl)isoindolin-1-one] | 3.7 nM | 27 nM | 22 nM | 1.2x | 5.7× | 0.65 nM | – | – |
| CO[C@H]1C[C@](c2cccc(N3Cc4c(cc(CNCC(C)C)cc4C(F)(F)F)C3=O)c2)(c2nncn2C)C1 [Compound 421, 6-((isobutylamino)methyl)-2-(3-((1r,3r)-3-methoxy-1-(4-methyl-4H-1,2,4-triazol-3-yl)cyclobutyl)phenyl)-4-(trifluoromethyl)isoindolin-1-one] | 24 nM | 17 nM | – | – | 14× | 1.7 nM | 6.5 nM | 2.6x |
| CO[C@H]1C[C@](c2cccc(N3Cc4c(cc(CNCC(C)(C)C)cc4C(F)(F)F)C3=O)c2)(c2nncn2C)C1 [Compound 481, 2-(3-((1r,3r)-3-methoxy-1-(4-methyl-4H-1,2,4-triazol-3-yl)cyclobutyl)phenyl)-6-((neopentylamino)methyl)-4-(trifluoromethyl)isoindolin-1-one] | 27 nM | 25 nM | – | – | 18× | 1.5 nM | 6.2 nM | 4.0x |
| CO[C@H]1C[C@](c2cccc(N3Cc4c(cc(CN[C@@H]5C[C@H]5C(C)(F)F)cc4C(F)(F)F)C3=O)c2)(c2nncn2C)C1 (single isomer, unassigned) [Compound 506] | 450 nM | 180 nM | – | – | 8.1× | 55 nM | 22 nM | 8.0x |
| CO[C@H]1C[C@@](c2cc(N[C@H](C)CC#N)cc(N3Cc4c(cc(CNC5(C)CCC5)cc4C(F)(F)F)C3=O)c2)(c2nncn2C)C1 (single isomer, unassigned) [Compound 228] | 16 nM | 21 nM | 16 nM | 1.3x | 8.7× | 1.9 nM | – | – |
| CC(C)[C@](O)(c1cccc(N2Cc3c(cc(CNC4(C)CCC4)cc3C(F)(F)F)C2=O)c1)c1nncn1C [Compound 310, (S)-2-(3-(1-hydroxy-2-methyl-1-(4-methyl-4H-1,2,4-triazol-3-yl)propyl)phenyl)-6-(((1-methylcyclobutyl)amino)methyl)-4-(trifluoromethyl)isoindolin-1-one] | 110 nM | 110 nM | 24 nM | 4.7x | 3.7× | 30 nM | – | – |
| Cn1cnnc1[C@]1(c2cc(OC3CCCC3)cc(N3Cc4c(cc(CNC5(C)CCC5)cc4C(F)(F)F)C3=O)c2)C[C@@H](C)C1 [Compound 195, 2-(3-(cyclopentyloxy)-5-((1r,3r)-3-methyl-1-(4-methyl-4H-1,2,4-triazol-3-yl)cyclobutyl)phenyl)-6-(((1-methylcyclobutyl)amino)methyl)-4-(trifluoromethyl)isoindolin-1-one] | 110 nM | 84 nM | 36 nM | 2.4x | 7.6× | 15 nM | – | – |
| Cn1cnnc1[C@@H](c1cccc(N2Cc3c(cc(CNC4(C)CC4)cc3C(F)(F)F)C2=O)c1)C1COC1 (single isomer, unassigned) [Compound 466] | 9.1 nM | 8.6 nM | – | – | 3.6× | 2.5 nM | 6.2 nM | 1.4x |
| Cn1cnnc1[C@@H](c1cccc(N2Cc3c(cc([C@@H](NC4(C)CCC4)C4CC4)cc3C(F)(F)F)C2=O)c1)C1COC1 (single isomer, unassigned) [Compound 430] | 74 nM | 91 nM | – | – | 14× | 5.9 nM | 19 nM | 4.7x |
| Cn1cnnc1[C@]1(c2cccc(N3Cc4c(cc(CNC5(C)CCC5)cc4C(F)F)C3=O)c2)C[C@@H](F)C1 [Compound 272, 4-(difluoromethyl)-2-(3-((1r,3r)-3-fluoro-1-(4-methyl-4H-1,2,4-triazol-3-yl)cyclobutyl)phenyl)-6-(((1-methylcyclobutyl)amino)methyl)isoindolin-1-one] | 11 nM | 25 nM | 15 nM | 1.7x | 7.6× | 1.4 nM | – | – |
| Cn1cnnc1[C@@H](c1cccc(N2Cc3c(cc(CNC4(C)CCC4)cc3C(F)(F)F)C2=O)c1)C1CC(OC(F)F)C1 (single isomer, unassigned) [Compound 388] | 970 nM | 870 nM | 120 nM | 7.6x | 9.7× | 100 nM | – | – |
| CO[C@H]1C[C@@](c2cc(NC3CC3)cc(N3Cc4c(cc(CNC5(C)CCC5)cc4C(F)(F)F)C3=O)c2)(c2nncn2C)C1 [Compound 231, 2-(3-(cyclopropylamino)-5-((1s,3s)-3-methoxy-1-(4-methyl-4H-1,2,4-triazol-3-yl)cyclobutyl)phenyl)-6-(((1-methylcyclobutyl)amino)methyl)-4-(trifluoromethyl)isoindolin-1-one] | 8.1 nM | 17 nM | 11 nM | 1.5x | 5.4× | 1.5 nM | – | – |
| Cn1cnnc1[C@H](c1cccc(N2Cc3c(cc(CNC4(C)CCC4)cc3C(F)(F)F)C2=O)c1)C1(O)COC1 (single isomer, unassigned) [Compound 147] | 42 nM | 29 nM | 13 nM | 2.2x | 9.6× | 3.6 nM | – | – |
| CNc1cc(N2Cc3c(cc(CNC4(C)CCC4)cc3C(F)(F)F)C2=O)cc([C@]2(c3nncn3C)C[C@@H](OC)C2)c1 [Compound 238, 2-(3-((1s,3s)-3-methoxy-1-(4-methyl-4H-1,2,4-triazol-3-yl)cyclobutyl)-5-(methylamino)phenyl)-6-(((1-methylcyclobutyl)amino)methyl)-4-(trifluoromethyl)isoindolin-1-one] | 5.8 nM | 14 nM | 12 nM | 1.1x | 2.6× | 2.2 nM | – | – |
